Measurements reported in PMC4546427, “Stereoselective Regulation of P-gp Activity by Clausenamide Enantiomers in Caco-2, KB/KBv and Brain Microvessel Endothelial Cells” (PLoS ONE, 2015).

Assays:
Caco-2 cells = assay: Uptake of CLA enantiomers in Caco-2 cells (LC-MS/MS); type: in vitro ADME, Human; conditions: for Intracellular concentration: Mean±SD, n = 3
Procedure: Caco-2 cells on 6-well plates (5 × 10^5 cells/well) were cultured in MEM containing 10% (v/v) FBS, 1% (v/v) NEAA, 100 units/mL penicillin and 100 μg/mL streptomycin sulphate at 37°C with 95% air and 5% CO2. When 80%–90% confluence was observed using an inverted light microscope, the cells were treated, respectively, with (−)CLA or (+)CLA at 1, 2.5 and 5 μmol/L for 2 h, washed 3 times with ice-cold PBS, collected into 1.5-mL Eppendorf tubes and centrifuged at 1500 rpm for 5 min. The precipitates were lysed with 80 μL of lysis buffer described above, frozen with liquid nitrogen, then thawed in water at 37°C three times, and then centrifuged at 10,000 rpm for 10 min (4°C). We used 10 μL of supernatant for the determination of protein concentration using Lowry’s method with bovine serum albumin as the standard, and the residue of the supernatants was subjected to extraction with ethyl acetate. The internal standard (IS) was 20 μL of glipizide (5.2 μg/mL). Extracted CLA enantiomer and glipizide were measured by a liquid chromatography-tandem mass spectrometr(LC-MS/MS).
The LC-MS/MS system consisted of an Alliance HT 2795 LC pump, an autosampler, and a Micromass Quattro Premier tandem quadrupole mass spectrometer with an electrospray ionization (ESI) source and Masslynx version 4.1 software (Waters Corp., Milford, MA, USA). The separation of CLA enantiomer and glipizide was performed using an XBridge C18 column (2.1 mm × 50 mm; i.d., 3.5 μm) (Waters Corp., Milford, MA, USA). The column temperature was maintained at 22°C, and the sample injection volume was 20 μL in the autosampler at 4°C. Mobile phases A and B were water with 0.1% (v/v) acetic acid and acetonitrile with 0.1% (v/v) acetic acid, respectively. Gradient elution was used at a flow rate of 0.25 mL/min for 8 min with 80% A and 20% B for 0–2 min, 5% A and 95% B for 2–4 min and 80% A and 20% B for 4.01–8 min. The LC system was connected to the mass spectrometer by an electrospray interface. The positive-ion ESI mode was selected, and the electrospray capillary voltage was 3.5 kV. Desolvation gas (ultrapure nitrogen) flow and cone gas flow were provided separately at rates of 600 L/h and 50 L/h, and source and desolvation temperatures were set at 110°C and 450°C, respectively. Argon was used as a collision gas in collision-induced dissociation of precursor ions at a flow rate of 0.27 mL/min. The data were acquired using multiple reaction monitoring mode and analysed by Masslynx software 4.1. The main parameters (retention time, ion channel, cone voltage and collision energy) were as follows: 2.66 min, 298.2–174.1, 25 V and 17 V for CLA enantiomer; and 2.97 min, 446.7–321.2, 25 V and 12 V for glipizide (IS), respectively. The lower limit of quantification of CLA enantiomer was 0.25 ng/mL. The mean relative recovery was 89%, and intra-assay and inter-assay coefficients of variation were <15%. The range of linearity was 0.25–200 ng/mL with r = 0.999. The concentrations of (−) or (+)CLA were quantified by standard curves according to their peak areas against the IS.

[1] = parameters: method as in PMID 12923804; conditions: rats; oral administration; n = 6; cited from earlier work
[2] = dose of CLA enantiomer 1.0 μmol/L, 2 h
[3] = dose of CLA enantiomer 2.5 μmol/L, 2 h
[4] = dose of CLA enantiomer 5.0 μmol/L, 2 h

SMILES | Intracellular concentration (Caco-2 cells; [2]) | Intracellular concentration (Caco-2 cells; [3]) | Intracellular concentration (Caco-2 cells; [4]) | AUC0–12 h [1] | Ratio (-)/(+) of intracellular concentrations (Caco-2 cells; 1.0 μmol/L, 2 h) | Ratio (-)/(+) of intracellular concentrations (Caco-2 cells; 2.5 μmol/L, 2 h) | Ratio (-)/(+) of intracellular concentrations (Caco-2 cells; 5.0 μmol/L, 2 h) | Ratio (-)/(+) of intracellular concentrations (Caco-2 cells; in the presence of cyclosporine A, data not shown)
CN1C(=O)[C@H](O)[C@@H](c2ccccc2)[C@H]1[C@H](O)c1ccccc1 [(+)CLA, 3R,4S,5S,6R-CLA] | 1.093 ± 0.233 ng/mL | 2.228 ± 0.065 ng/mL | 4.677 ± 1.029 ng/mL | 2446 ± 540 µg·min/mL | – | – | – | –
CN1C(=O)[C@@H](O)[C@H](c2ccccc2)[C@@H]1[C@@H](O)c1ccccc1 [(−)CLA, 3S, 4R, 5R, 6S-clausenamide] | 2.834 ± 0.808 ng/mL | 4.829 ± 0.603 ng/mL | 8.853 ± 2.505 ng/mL | 1256 ± 308 µg·min/mL | 2.593 | 2.167 | 1.893 | 1.091
